From patent US20130158362A1 (INFACARE PHARMACEUTICAL CORPORATION, priority 2011, published 2013)

System: total serum bilirubin (TSB)
Test: Phase 2b trial: total serum bilirubin (TSB), adjusted and unadjusted, change from baseline
Format: in vivo, human
Design: total serum bilirubin / total serum bilirubin, Delta (change from baseline) / Change from baseline of total serum bilirubin: unit not given here
Settings: for total serum bilirubin / total serum bilirubin, Delta (change from baseline): 48 hours, preliminary data; for change from baseline in adjusted TSB, LS mean difference versus placebo, MMRM / change from baseline in adjusted TSB, LS means (SEM), MMRM: observed case
Protocol: Three cohorts of subjects were recruited. This clinical study was designed to evaluate safety and efficacy parameters in each cohort.
Scheduled assessments (including TSB) occurred before treatment and at 0.75 and 2 hours (or 1.5 and 3 hours, depending on PK blood sampling assignment); 6, 12, 24, 48, and 72 hours; and 14 and 30 (except TSB) days after treatment or early termination.
The primary efficacy endpoint was the change in adjusted TSB from baseline to 48 hours after treatment. The adjusted TSB was a calculation of the percentage variance of the TSB level from the age specific threshold for PT initiation per the AAP Guidelines, i.e., an indication of the distance below the PT threshold by time.
The Secondary Efficacy Endpoints were the change from baseline in unadjusted TSB at 48 hours after treatment, change from baseline in adjusted and unadjusted TSB at various other time points after treatment, percent change from baseline in unadjusted TSB, proportion of subjects who require PT/exchange transfusion (ET), time to PT/ET, duration of PT and time to hospital discharge.
Intent-to-treat population (ITT): Defined as all subjects who were randomly assigned treatment in the clinical study, had received IMP, and had at least 1 post baseline TSB measurement during the first 48 hours after treatment. Subjects were summarized based on randomized treatment.
Analysis of Efficacy Parameters: The primary efficacy analysis applied the analysis of covariance (ANCOVA) method to determine if there was a significant difference between treatment groups in change in adjusted TSB levels from baseline to 48 hours post baseline after controlling for the effects of gestational age and adjusted baseline TSB levels. If assumptions of ANCOVA appeared to be violated, a Wilcoxon rank-sum test could be performed instead. Time-to-event variables were analyzed using the Kaplan-Meier method, and Kaplan-Meier survival curves were presented.

[1] = 1.5 mg/kg IM, 6 h, ITT, LOCF, ANCOVA
[2] = 1.5 mg/kg IM, 12 h, ITT, LOCF, ANCOVA
[3] = 1.5 mg/kg IM, 24 h, ITT, LOCF, ANCOVA
[4] = 1.5 mg/kg IM, 48 h/early termination, ITT, LOCF
[5] = 1.5 mg/kg IM, 48 h, ITT, LOCF, ANCOVA
[6] = 1.5 mg/kg IM, 72 h, ITT, LOCF, ANCOVA
[7] = 1.5 mg/kg IM, 14 days/early termination, ITT, LOCF
[8] = 1.5 mg/kg IM, 14 days/early termination, ITT, LOCF, ANCOVA
[9] = 1.5 mg/kg versus the placebo group, 48 Hours/Early termination, PP Population, ANCOVA
[10] = 1.5 mg/kg, 48 Hours/Early termination, PP Population, LOCF
[11] = 1.5 mg/kg, 6 hrs, unadjusted TSB, ITT Population

tin IV mesoporphyrin IX dichloride [Stannsoporfin]
total serum bilirubin (1.5 mg/kg IM (N = 10), treated per protocol): 10.96 ± 1.8
adjusted TSB, Mean (SD) (1.5 mg/kg IM, 6 h, ITT, LOCF): −17.77 (13.326) %
change from baseline in adjusted TSB, Mean (SD) (1.5 mg/kg IM, 6 h, ITT, LOCF): 2.47 (7.928) %
change from baseline in adjusted TSB, Median (1.5 mg/kg IM, 6 h, ITT, LOCF): 2.80%
change from baseline in unadjusted TSB, Mean (SD) (1.5 mg/kg IM, 6 h, ITT, LOCF): 1.50 (0.861) mg/dL
change from baseline in unadjusted TSB, Median (1.5 mg/kg IM, 6 h, ITT, LOCF): 1.50 mg/dL
unadjusted TSB, Mean (SD) (1.5 mg/kg IM, 6 h, ITT, LOCF): 9.09 (2.175) mg/dL
unadjusted TSB, Median (1.5 mg/kg IM, 6 h, ITT, LOCF): 9.60 mg/dL
change from baseline in adjusted TSB, LS mean (SEM) [1]: 2.72 (2.053) %
change from baseline in adjusted TSB, LS mean difference versus placebo [1]: −1.67%
change from baseline in unadjusted TSB, LS Mean (SEM) [1]: 1.38 (0.242) mg/dL
change from baseline in unadjusted TSB, LS Mean Difference versus placebo [1]: -0.21 mg/dL
change from baseline in adjusted TSB, LS mean difference versus placebo, MMRM (1.5 mg/kg IM, 6 h, ITT): −1.44%
change from baseline in adjusted TSB, LS means (SEM), MMRM (1.5 mg/kg IM, 6 h, ITT): 2.94 (2.098) %
adjusted TSB, Mean (SD) (1.5 mg/kg IM, 12 h, ITT, LOCF): −17.41 (17.294) %
change from baseline in adjusted TSB, Mean (SD) (1.5 mg/kg IM, 12 h, ITT, LOCF): 2.83 (12.949) %
change from baseline in adjusted TSB, Median (1.5 mg/kg IM, 12 h, ITT, LOCF): 5.70%
change from baseline in unadjusted TSB, Mean (SD) (1.5 mg/kg IM, 12 h, ITT, LOCF): 2.22 (1.624) mg/dL
change from baseline in unadjusted TSB, Median (1.5 mg/kg IM, 12 h, ITT, LOCF): 2.50 mg/dL
unadjusted TSB, Mean (SD) (1.5 mg/kg IM, 12 h, ITT, LOCF): 9.82 (2.599) mg/dL
unadjusted TSB, Median (1.5 mg/kg IM, 12 h, ITT, LOCF): 10.20 mg/dL
change from baseline in adjusted TSB, LS mean (SEM) [2]: 4.54 (3.015) %
change from baseline in adjusted TSB, LS mean difference versus placebo [2]: −2.59%
change from baseline in unadjusted TSB, LS Mean (SEM) [2]: 2.21 (0.374) mg/dL
change from baseline in unadjusted TSB, LS Mean Difference versus placebo [2]: -0.39 mg/dL
change from baseline in adjusted TSB, LS mean difference versus placebo, MMRM (1.5 mg/kg IM, 12 h, ITT): −2.67%
change from baseline in adjusted TSB, LS means (SEM), MMRM (1.5 mg/kg IM, 12 h, ITT): 3.29 (2.731) %
adjusted TSB, Mean (SD) (1.5 mg/kg IM, 24 h, ITT, LOCF): −24.44 (18.927) %
change from baseline in adjusted TSB, Mean (SD) (1.5 mg/kg IM, 24 h, ITT, LOCF): −4.20 (16.064) %
change from baseline in adjusted TSB, Median (1.5 mg/kg IM, 24 h, ITT, LOCF): −4.30%
change from baseline in unadjusted TSB, Mean (SD) (1.5 mg/kg IM, 24 h, ITT, LOCF): 2.24 (2.084) mg/dL
change from baseline in unadjusted TSB, Median (1.5 mg/kg IM, 24 h, ITT, LOCF): 2.70 mg/dL
unadjusted TSB, Mean (SD) (1.5 mg/kg IM, 24 h, ITT, LOCF): 9.84 (2.656) mg/dL
unadjusted TSB, Median (1.5 mg/kg IM, 24 h, ITT, LOCF): 10.80 mg/dL
change from baseline in adjusted TSB, LS mean (SEM) [3]: −7.62 (4.320) %
change from baseline in adjusted TSB, LS mean difference versus placebo [3]: −7.53%
change from baseline in unadjusted TSB, LS Mean (SEM) [3]: 1.98 (0.549) mg/dL
change from baseline in unadjusted TSB, LS Mean Difference versus placebo [3]: -0.76 mg/dL
change from baseline in adjusted TSB, LS mean difference versus placebo, MMRM (1.5 mg/kg IM, 24 h, ITT): −3.77%
change from baseline in adjusted TSB, LS means (SEM), MMRM (1.5 mg/kg IM, 24 h, ITT): −5.33 (3.948) %
adjusted TSB, Mean (SD) [4]: −35.09 (19.198) %
adjusted TSB, Median [4]: −27.10%
change from baseline in adjusted TSB, Mean (SD) (1.5 mg/kg IM, 48 h, ITT, LOCF): −14.85 (15.442) %
change from baseline in adjusted TSB, Median (1.5 mg/kg IM, 48 h, ITT, LOCF): −12.30%
change from baseline in unadjusted TSB, Mean (SD) (1.5 mg/kg IM, 48 h, ITT, LOCF): 2.32 (2.560) mg/dL
change from baseline in unadjusted TSB, Median (1.5 mg/kg IM, 48 h, ITT, LOCF): 2.70 mg/dL
unadjusted TSB, Mean (SD) (1.5 mg/kg IM, 48 h, ITT, LOCF): 9.91 (3.116) mg/dL
unadjusted TSB, Median (1.5 mg/kg IM, 48 h, ITT, LOCF): 10.90 mg/dL
change from baseline in adjusted TSB, LS mean (SEM) (primary endpoint) [5]: −15.03 (5.273) %
change from baseline in adjusted TSB, LS mean difference versus placebo [5]: −13.45%
change from baseline in unadjusted TSB, LS Mean (SEM) [5]: 2.43 (0.842) mg/dL
change from baseline in unadjusted TSB, LS Mean Difference versus placebo [5]: -1.81 mg/dL
change from baseline in adjusted TSB, LS mean (SEM) (primary endpoint) (1.5 mg/kg IM, 48 h, ITT, LOCF, ANCOVA, listed as stannsoporfin): 15.0%
change from baseline in adjusted TSB, LS mean difference versus placebo, MMRM (1.5 mg/kg IM, 48 h, ITT): −8.26%
change from baseline in adjusted TSB, LS means (SEM), MMRM (1.5 mg/kg IM, 48 h, ITT): −14.94 (5.019) %
total serum bilirubin (1.5 mg/kg IM, intent to treat): 9.91 ± 3.1
total serum bilirubin, Delta (change from baseline) (1.5 mg/kg IM, intent to treat): 2.32 ± 2.5
total serum bilirubin, Delta (change from baseline) (1.5 mg/kg IM, treated per protocol): 3.44 ± 1.5
adjusted TSB, Mean (SD) (1.5 mg/kg IM, 72 h/early termination, ITT, LOCF): −44.82 (19.254) %
change from baseline in adjusted TSB, Mean (SD) (1.5 mg/kg IM, 72 h, ITT, LOCF): −24.58 (15.743) %
change from baseline in adjusted TSB, Median (1.5 mg/kg IM, 72 h, ITT, LOCF): −22.10%
change from baseline in unadjusted TSB, Mean (SD) (1.5 mg/kg IM, 72 h, ITT, LOCF): 1.76 (2.790) mg/dL
change from baseline in unadjusted TSB, Median (1.5 mg/kg IM, 72 h, ITT, LOCF): 2.40 mg/dL
unadjusted TSB, Mean (SD) (1.5 mg/kg IM, 72 h, ITT, LOCF): 9.35 (3.409) mg/dL
unadjusted TSB, Median (1.5 mg/kg IM, 72 h, ITT, LOCF): 10.60 mg/dL
change from baseline in adjusted TSB, LS mean (SEM) [6]: −21.94 (6.232) %
change from baseline in adjusted TSB, LS mean difference versus placebo [6]: −17.19%
change from baseline in unadjusted TSB, LS Mean (SEM) [6]: 2.43 (1.077) mg/dL
change from baseline in unadjusted TSB, LS Mean Difference versus placebo [6]: -2.52 mg/dL
change from baseline in unadjusted TSB, Mean (SD) [7]: −4.08 (2.322) mg/dL
change from baseline in unadjusted TSB, Median [7]: -4.00 mg/dL
unadjusted TSB, Mean (SD) [7]: 3.52 (2.751) mg/dL
unadjusted TSB, Median [7]: 2.80 mg/dL
change from baseline in unadjusted TSB, LS Mean (SEM) [8]: −4.04 (1.258) mg/dL
change from baseline in unadjusted TSB, LS Mean Difference versus placebo [8]: -1.74 mg/dL
48 Hours/Early termination change from baseline in unadjusted TSB, LS mean difference [9]: -0.97 mg/dL
P-value of LS mean difference, change from baseline in unadjusted TSB [9]: 0.338
48 Hours/Early termination change from baseline in unadjusted TSB, Max [10]: 5.2 mg/dL
48 Hours/Early termination change from baseline in unadjusted TSB, Mean (SD) [10]: 3.44 (1.458) mg/dL
48 Hours/Early termination change from baseline in unadjusted TSB, Median [10]: 3.40 mg/dL
48 Hours/Early termination change from baseline in unadjusted TSB, Min [10]: 0.7 mg/dL
48 Hours/Early termination unadjusted TSB, Max [10]: 12.8 mg/dL
48 Hours/Early termination unadjusted TSB, Mean (SD) [10]: 10.96 (1.842) mg/dL
48 Hours/Early termination unadjusted TSB, Median [10]: 11.35 mg/dL
48 Hours/Early termination unadjusted TSB, Min [10]: 6.8 mg/dL
48 Hours/Early termination change from baseline in unadjusted TSB, LS mean (SEM) (1.5 mg/kg, 48 Hours/Early termination, PP Population, LOCF, ANCOVA): 2.96 (0.868) mg/dL
6 hrs Percent Change from Baseline in TSB, Max [11]: 42.0%
6 hrs Percent Change from Baseline in TSB, Mean (SD) [11]: 20.13 (12.268) %
6 hrs Percent Change from Baseline in TSB, Min [11]: −1.7%
6 hrs TSB, Max [11]: 14.1 mg/dL
